These results are taken from BindingDB's records for patent US20230312550 (Astrazeneca, 2023).

The test concerns the target T1, Prolyl endopeptidase FAP (Homo sapiens, UniProt Q12884).
T1 sequence (Q12884 whole entry): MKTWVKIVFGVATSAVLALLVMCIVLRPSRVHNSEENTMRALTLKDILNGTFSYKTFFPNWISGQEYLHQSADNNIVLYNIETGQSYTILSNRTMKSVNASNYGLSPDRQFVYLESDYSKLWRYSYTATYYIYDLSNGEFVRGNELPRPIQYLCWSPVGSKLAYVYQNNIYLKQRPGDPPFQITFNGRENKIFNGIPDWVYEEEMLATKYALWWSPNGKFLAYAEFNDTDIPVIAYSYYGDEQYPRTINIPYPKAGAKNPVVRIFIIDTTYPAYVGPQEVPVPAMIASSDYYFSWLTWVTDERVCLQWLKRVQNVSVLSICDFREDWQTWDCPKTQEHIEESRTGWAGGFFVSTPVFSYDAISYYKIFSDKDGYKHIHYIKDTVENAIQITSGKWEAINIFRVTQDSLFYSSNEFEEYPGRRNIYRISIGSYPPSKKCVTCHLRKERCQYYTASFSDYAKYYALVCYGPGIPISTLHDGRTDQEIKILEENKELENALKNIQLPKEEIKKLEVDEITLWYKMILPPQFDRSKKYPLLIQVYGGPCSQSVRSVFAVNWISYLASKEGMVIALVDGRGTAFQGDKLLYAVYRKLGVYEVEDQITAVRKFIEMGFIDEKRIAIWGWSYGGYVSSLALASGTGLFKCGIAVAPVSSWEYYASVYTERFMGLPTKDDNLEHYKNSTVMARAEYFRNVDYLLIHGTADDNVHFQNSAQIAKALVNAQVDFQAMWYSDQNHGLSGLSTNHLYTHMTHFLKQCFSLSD
Nature of the test: hFAP Binding Assay. The conditions noted are these: for kon: read-out: kon (M-1-s-1).

Experimental: Table 1: Compounds were tested in a direct binding assay using 8K surface plasmon resonance biosensor (GE Healthcare) at 20° C. Immobilization of hFAP (M39-A757) on a CMD200M sensor chip (Xantec) was performed using standard amine coupling procedure in immobilization buffer (10 mM HEPES, 150 mM NaCl, 0.05% Tween20, pH 7.4). The surface was washed with 10 mM NaOH, 1M NaCl before being activated with EDC/NHS (GE Healthcare), followed by immobilization of hFAP (in 10 mM Acetate pH 5.0). Finally, the surface was deactivated by ethanolamine. Immobilization levels of hFAP were around 4000-6000 RU. The reference spot was treated as described, omitting the injection of hFAP. Compound concentration series were injected over the immobilized protein in increasing concentrations (2-500 nM) using single cycle kinetics in running buffer (20 mM TRIS, 150 mM NaCl, 0.05% Tween20, 1% DMSO, pH 7.4).

What is called koff is a measure of how fast the partners let go of each other. A higher koff goes with a short-lived complex. A word on the kon: it is the second-order rate constant of association. On to `N#C[C@@H]1CSCN1C(=O)CNC(=O)c1ccnc2ccc(N3C4CCC3CC4)cc12` [US20230312550, Example 209], for which the dissociation rate constant (koff) was 4.2e-05 s⁻¹ and the kon stood at 3.2e+06 M⁻¹ s⁻¹.

On to `N#C[C@@H]1CSCN1C(=O)CNC(=O)c1ccnc2ccc(N3CCOC(F)(F)C3)cc12` [US20230312550, Example 4], for which the koff is 9.4e-05 s⁻¹ and the kon is 1.2e+06 M⁻¹ s⁻¹.

As for `N#C[C@@H]1CSCN1C(=O)CNC(=O)c1ccnc2ccc(N3CC4CCCC4C3)cc12` (some centres not stated) [US20230312550, Example 53], the koff is 5e-05 s⁻¹ and the kon came to 680000 M⁻¹ s⁻¹.

`N#C[C@@H]1CSCN1C(=O)CNC(=O)c1ccnc2ccc(N3CCOc4ccccc43)cc12` [US20230312550, Example 6] showed a koff of 18 s⁻¹.

Consider `N#C[C@@H]1CSCN1C(=O)CNC(=O)c1ccnc2ccc(N3CC4(CC(C(F)(F)F)C4)C3)cc12` [US20230312550, Example 150], for which the koff was 4.3e-05 s⁻¹ and the kon was 280000 M⁻¹ s⁻¹.

As for `N#C[C@@H]1CSCN1C(=O)CNC(=O)c1ccnc2c(Cl)cc(N3CCOCC3)cc12` [US20230312550, Example 180], the koff stood at 0.00095 s⁻¹ and the kon was found to be 560000 M⁻¹ s⁻¹.

With `N#C[C@@H]1CSCN1C(=O)CNC(=O)c1ccnc2ccc(N3CCC4(CC3)COC4)cc12` [US20230312550, Example 229], the koff worked out at 2.6e-05 s⁻¹ and the kon worked out at 2.4e+06 M⁻¹ s⁻¹.

For `C[C@]1(F)CCN(c2ccc3nccc(C(=O)NCC(=O)N4CSC[C@H]4C#N)c3c2)C1` [US20230312550, Example 198], the koff came to 0.00011 s⁻¹ and the on-rate constant (kon) came to 2.9e+06 M⁻¹ s⁻¹.

As for `N#C[C@@H]1CSCN1C(=O)CNC(=O)c1ccnc2ccc(N3C[C@@H]4CCC[C@@H]43)cc12` (mixture of isomers) [US20230312550, Example 156], the koff was determined as 6.6e-05 s⁻¹ and the kon amounted to 1.2e+06 M⁻¹ s⁻¹.

`Cc1noc(C)c1-c1ccc2nccc(C(=O)NCC(=O)N3CSC[C@H]3C#N)c2c1` [US20230312550, Example 216]: the koff stood at 0.0009 s⁻¹ and the kon turned out to be 5.2e+06 M⁻¹ s⁻¹.

In the case of `N#C[C@@H]1CSCN1C(=O)CNC(=O)c1ccnc2ccc(-n3ccc4c3CCCC4)cc12` [US20230312550, Example 219], the koff came to 0.0002 s⁻¹ and the kon was found to be 2.4e+06 M⁻¹ s⁻¹.

Consider `CC1(C)CCN1c1ccc2nccc(C(=O)NCC(=O)N3CSC[C@H]3C#N)c2c1` [US20230312550, Example 20], for which the koff was 0.00012 s⁻¹ and the kon was 4.2e+06 M⁻¹ s⁻¹.

Regarding `CC1(C)CCCN(c2ccc3nccc(C(=O)NCC(=O)N4CSC[C@H]4C#N)c3c2)C1=O` [US20230312550, Example 15], the koff was determined as 4.6e-05 s⁻¹ and the on-rate (kon) was 490000 M⁻¹ s⁻¹.

Turning to `N#C[C@@H]1CSCN1C(=O)CNC(=O)c1ccnc2ccc(N3C[C@H]4CCC[C@@H](C3)O4)cc12` [US20230312550, Example 194], the koff was determined as 6.8e-05 s⁻¹ and the kon is 1.1e+06 M⁻¹ s⁻¹.

In the case of `CC(C)C1CN(c2ccc3nccc(C(=O)NCC(=O)N4CSC[C@H]4C#N)c3c2)C1` [US20230312550, Example 148], the koff was determined as 0.0002 s⁻¹ and the kon was 6.6e+06 M⁻¹ s⁻¹.

As for `C[C@H]1CCN(c2ccc3nccc(C(=O)NCC(=O)N4CSC[C@H]4C#N)c3c2)CCO1` [US20230312550, Example 62], the off-rate constant (koff) was determined as 8.5e-05 s⁻¹ and the kon is 710000 M⁻¹ s⁻¹.

For `N#C[C@@H]1CSCN1C(=O)CNC(=O)c1ccnc2ccc(N3C[C@@H]4C[C@H]3CO4)cc12` [US20230312550, Example 75], the koff amounted to 2.4e-05 s⁻¹ and the kon came out at 2.3e+06 M⁻¹ s⁻¹.

For `N#C[C@@H]1CSCN1C(=O)CNC(=O)c1ccnc2ccc(N3CC(OC(F)F)C3)cc12` [US20230312550, Example 136], the dissociation rate constant (koff) amounted to 5e-05 s⁻¹ and the kon worked out at 2e+06 M⁻¹ s⁻¹.

In the case of `Cc1cc2nccc(C(=O)NCC(=O)N3CSC[C@H]3C#N)c2cc1N1CCOCC1` [US20230312550, Example 10], the koff turned out to be 5.6e-05 s⁻¹ and the association rate constant (kon) stood at 370000 M⁻¹ s⁻¹.

`C[C@]1(O)CCN(c2ccc3nccc(C(=O)NCC(=O)N4CSC[C@H]4C#N)c3c2)C1` [US20230312550, Example 168]: the koff came out at 4.8e-05 s⁻¹ and the kon was determined as 1.6e+06 M⁻¹ s⁻¹.

On to `N#C[C@@H]1CSCN1C(=O)CNC(=O)c1ccnc2ccc(N3CC(C(F)(F)F)C3)cc12` [US20230312550, Example 26], for which the koff was 6.5e-05 s⁻¹ and the kon turned out to be 1.3e+06 M⁻¹ s⁻¹.

Regarding `C[C@@H]1CN(c2ccc3nccc(C(=O)NCC(=O)N4CSC[C@H]4C#N)c3c2)CCCO1` [US20230312550, Example 64], the koff stood at 0.00015 s⁻¹ and the association rate constant (kon) was 1.3e+06 M⁻¹ s⁻¹.

Consider `N#C[C@@H]1CSCN1C(=O)CNC(=O)c1ccnc2ccc(N3CC4(CCC4)C3)cc12` [US20230312550, Example 17], for which the koff is 0.00012 s⁻¹ and the on-rate (kon) worked out at 8.3e+06 M⁻¹ s⁻¹.

For `CC(C)n1nccc1-c1ccc2nccc(C(=O)NCC(=O)N3CSC[C@H]3C#N)c2c1` [US20230312550, Example 197], the koff came out at 6.6e-05 s⁻¹ and the kon came to 88000 M⁻¹ s⁻¹.

As to `CC1(CS(C)(=O)=O)CN(c2ccc3nccc(C(=O)NCC(=O)N4CSC[C@H]4C#N)c3c2)C1` [US20230312550, Example 188], the koff was 2.2e-05 s⁻¹ and the kon was found to be 2.6e+06 M⁻¹ s⁻¹.

As to `CCC1(OC)CCN(c2ccc3nccc(C(=O)NCC(=O)N4CSC[C@H]4C#N)c3c2)CC1` [US20230312550, Example 191], the koff is 3.3e-05 s⁻¹ and the kon was found to be 1.5e+06 M⁻¹ s⁻¹.

Regarding `N#C[C@@H]1CSCN1C(=O)CNC(=O)c1ccnc2ccc(N3CC(F)(CF)C3)cc12` [US20230312550, Example 157], the koff was found to be 0.00012 s⁻¹ and the kon worked out at 1.9e+06 M⁻¹ s⁻¹.

In the case of `N#C[C@@H]1CSCN1C(=O)CNC(=O)c1ccnc2ccc(N3C[C@@H]4CC[C@H]3C4)cc12` (mixture of isomers) [US20230312550, Example 210], the koff came to 9.8e-05 s⁻¹ and the kon was found to be 3.8e+06 M⁻¹ s⁻¹.

Take `CC1(C)CCCN1c1ccc2nccc(C(=O)NCC(=O)N3CSC[C@H]3C#N)c2c1` [US20230312550, Example 57]: the koff came to 0.00018 s⁻¹ and the kon was 8e+06 M⁻¹ s⁻¹.

On to `N#C[C@@H]1CSCN1C(=O)CNC(=O)c1ccnc2ccc(N3CCOCC3)c(Cl)c12` [US20230312550, Example 101], for which the koff amounted to 2.5e-05 s⁻¹ and the on-rate constant (kon) amounted to 740000 M⁻¹ s⁻¹.

Regarding `N#C[C@@H]1CSCN1C(=O)CNC(=O)c1ccnc2ccc(N3CC(CCC(F)(F)F)C3)cc12` [US20230312550, Example 142], the koff worked out at 5.5e-05 s⁻¹ and the on-rate (kon) was 1.8e+06 M⁻¹ s⁻¹.

For the compound `CS(=O)(=O)C[C@H]1CN(c2ccc3nccc(C(=O)NCC(=O)N4CSC[C@H]4C#N)c3c2)CCO1` [US20230312550, Example 92], the koff was found to be 0.00011 s⁻¹ and the kon worked out at 2.2e+06 M⁻¹ s⁻¹.

Regarding `CC(C)C1(O)CCN(c2ccc3nccc(C(=O)NCC(=O)N4CSC[C@H]4C#N)c3c2)CC1` [US20230312550, Example 192], the dissociation rate constant (koff) came out at 1.4e-05 s⁻¹ and the on-rate (kon) turned out to be 1.3e+06 M⁻¹ s⁻¹.

As for `N#C[C@@H]1CSCN1C(=O)CNC(=O)c1ccnc2ccc(N3C[C@H]4C[C@@H]3CO4)cc12` [US20230312550, Example 76], the off-rate constant (koff) was found to be 5.2e-05 s⁻¹ and the kon is 1e+06 M⁻¹ s⁻¹.

On to `CC(=O)N1CC2(C1)CN(c1ccc3nccc(C(=O)NCC(=O)N4CSC[C@H]4C#N)c3c1)C2` [US20230312550, Example 184], for which the koff is 1.4e-05 s⁻¹ and the kon came out at 950000 M⁻¹ s⁻¹.

Turning to `N#C[C@@H]1CSCN1C(=O)CNC(=O)c1ccnc2ccc(N3CC(CF)C3)cc12` [US20230312550, Example 113], the koff was determined as 4.5e-05 s⁻¹ and the kon amounted to 1.5e+06 M⁻¹ s⁻¹.

Regarding `C[C@@H]1CCCN(c2ccc3nccc(C(=O)NCC(=O)N4CSC[C@H]4C#N)c3c2)C1=O` [US20230312550, Example 204], the off-rate (koff) was determined as 5.8e-05 s⁻¹ and the kon stood at 850000 M⁻¹ s⁻¹.

With `N#C[C@@H]1CSCN1C(=O)CNC(=O)c1ccnc2ccc(N3CC4CC(C3)O4)cc12` [US20230312550, Example 77], the koff is 6.6e-05 s⁻¹ and the association rate constant (kon) came out at 4.8e+06 M⁻¹ s⁻¹.

With `N#C[C@@H]1CSCN1C(=O)CNC(=O)c1ccnc2ccc(N3CCC[C@H]3C(F)(F)F)cc12` [US20230312550, Example 56], the koff came out at 0.00011 s⁻¹ and the on-rate constant (kon) came out at 540000 M⁻¹ s⁻¹.

For the compound `N#C[C@@H]1CSCN1C(=O)CNC(=O)c1ccnc2ccc(N3CC[C@H](F)C3)cc12` [US20230312550, Example 51], the off-rate (koff) was 0.00011 s⁻¹ and the kon was 5.6e+06 M⁻¹ s⁻¹.

As to `C[C@@H]1COC[C@H](C)N1c1ccc2nccc(C(=O)NCC(=O)N3CSC[C@H]3C#N)c2c1` [US20230312550, Example 90], the koff stood at 0.0001 s⁻¹ and the kon was determined as 480000 M⁻¹ s⁻¹.

On to `COC[C@@H]1[C@@H](C)OCCN1c1ccc2nccc(C(=O)NCC(=O)N3CSC[C@H]3C#N)c2c1` [US20230312550, Example 97], for which the off-rate constant (koff) was 7.6e-05 s⁻¹ and the on-rate (kon) was 690000 M⁻¹ s⁻¹.

In the case of `COC1(C)CCN(c2ccc3nccc(C(=O)NCC(=O)N4CSC[C@H]4C#N)c3c2)CC1` [US20230312550, Example 42], the koff amounted to 5.4e-05 s⁻¹ and the kon came out at 1.8e+06 M⁻¹ s⁻¹.

As for `N#C[C@@H]1CSCN1C(=O)CNC(=O)c1ccnc2ccc(N3CCOCC34CCC4)cc12` [US20230312550, Example 104], the off-rate (koff) amounted to 6.1e-05 s⁻¹ and the kon amounted to 3e+06 M⁻¹ s⁻¹.
